Data: patent publication US8822503B2, “2-pyridone compounds” (Taisho Pharmaceutical Co., Ltd, priority 2009, dated 2014)

Target: T1, human liver GK (Homo sapiens, UniProt P35557)
T1 construct: GST (glutathione S-transferase) (N); made in house; host or cells: E. coli
T1 sequence (P35557 1-466 isoform P35557-2): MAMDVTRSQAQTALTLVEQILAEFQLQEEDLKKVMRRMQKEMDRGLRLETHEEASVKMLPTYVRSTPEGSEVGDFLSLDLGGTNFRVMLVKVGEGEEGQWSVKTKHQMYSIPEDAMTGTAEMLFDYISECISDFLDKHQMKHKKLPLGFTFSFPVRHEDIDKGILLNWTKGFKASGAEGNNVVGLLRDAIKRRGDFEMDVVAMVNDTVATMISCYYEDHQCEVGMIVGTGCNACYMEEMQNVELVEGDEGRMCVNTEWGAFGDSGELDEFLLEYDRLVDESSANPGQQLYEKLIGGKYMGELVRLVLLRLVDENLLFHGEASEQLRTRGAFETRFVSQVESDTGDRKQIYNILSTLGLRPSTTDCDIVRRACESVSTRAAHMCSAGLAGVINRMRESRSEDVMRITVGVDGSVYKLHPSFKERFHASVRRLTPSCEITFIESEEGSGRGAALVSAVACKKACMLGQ
Experiment: GK activation test
Type: biochemical
Details: test compound concentration needed to activate 50% of maximum activation ability; 4 mM 14C-labeled glucose, 2 mM ATP, room temperature, 20 minutes
How it was run: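 GST-tagged human liver GK from E. coli (0.24 μg/well) with 4 mM 14C-glucose, 2 mM ATP in Hepes-KOH pH 7.1, KCl, MgCl2, DTT, 1% DMSO, 20 min room temperature. Labeled glucose 6-phosphate captured on anion resin, eluted and counted. EC50 = concentration giving half of maximal activation.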

| SMILES | EC50 [nM] |
| --- | --- |
| CC(C)(C)c1ccc(/C(=C\CN2CCOCC2)c2ccc(Cl)c(=O)[nH]2)cc1 [Example 6-5, 6-[(1E)-1-(4-tert-Butylphenyl)-3-(morpholin-4-yl)prop-1-en-1-yl]-3-chloropyridin-2(1H)-one] | 3000 to 10000 |
| CC(C)(C)c1ccc(/C(=C\Cc2ccccc2)c2ccc(Cl)c(=O)[nH]2)cc1 [Example 6-28, 6-[(1E)-1-(4-tert-Butylphenyl)-3-phenylprop-1-en-1-yl]-3-chloropyridin-2(1H)-one] | 500 to 3000 |
| Cc1ccc(C(C[C@H]2CCC(=O)N2)c2ccc(C3CC3)c(=O)[nH]2)cc1 (single isomer, unassigned) [Example 4-294] | 500 to 3000 |
| CCN(CC)CCCC(=O)c1ccc(/C(=C\C2CCCC2)c2ccc(C(F)(F)F)c(=O)[nH]2)cc1 [Example 1-42, 6-[(E)-2-Cyclopentyl-1-{4-[4-(diethylamino)butanoyl]phenyl}ethenyl]-3-(trifluoromethyl)pyridin-2(1H)-one] | 500 to 3000 |
| CS(=O)(=O)c1ccc(/C(=C\C2CCCC2)c2ccc(C3CC3)c(=O)[nH]2)cc1 [Example 1-6, 6-{(E)-2-Cyclopentyl-1-[4-(methylsulfonyl)phenyl]ethenyl}-3-cyclopropylpyridin-2(1H)-one] | 10 to 500 |
| CCOc1ccc(C(C[C@H]2CCC(=O)N2)c2ccc(C3CC3)c(=O)[nH]2)cc1 (single isomer, unassigned) [Example 4-328] | 500 to 3000 |
| CC(C)(C)c1ccc(/C(=C\COc2ccccc2)c2ccc(Cl)c(=O)[nH]2)cc1 [Example 6-10, 6-[(1E)-1-(4-tert-Butylphenyl)-3-phenoxyprop-1-en-1-yl]-3-chloropyridin-2(1H)-one] | 500 to 3000 |

Second part, the molecule after the results:

| EC50 [nM] | SMILES |
| --- | --- |
| 10 to 500 | CC(C)c1ccc(/C(=C\[C@H]2CCC(=O)N2)c2ccc(Cl)c(=O)[nH]2)cc1Cl [Example 4-84, 3-Chloro-6-{(E)-1-[3-chloro-4-(propan-2-yl)phenyl]-2-[(2R)-5-oxopyrrolidin-2-yl]ethenyl}pyridin-2(1H)-one] |
| 10 to 500 | O=C1CC[C@H](/C=C(\c2ccc(C(F)F)c(Cl)c2)c2ccc(C3CC3)c(=O)[nH]2)N1 [Example 4-132, 6-{(E)-1-[3-Chloro-4-(difluoromethyl)phenyl]-2-[(2R)-5-oxopyrrolidin-2-yl]ethenyl}-3-cyclopropylpyridin-2(1H)-one] |
| 500 to 3000 | O=C1CC[C@H](/C=C(\c2ccc(C(F)(F)F)cc2)c2ccc(CCCCO)c(=O)[nH]2)N1 [Example 4-200, 3-(4-Hydroxybutyl)-6-{(E)-2-[(2R)-5-oxopyrrolidin-2-yl]-1-[4-(trifluoromethyl)phenyl]ethenyl}pyridin-2(1H)-one] |
| 10 to 500 | CC(C)c1ccc(/C(=C\[C@H]2CCC(=O)N2)c2ccc(C3CC3)c(=O)[nH]2)cc1 [Example 4-67, 3-Cyclopropyl-6-{(E)-2-[(2R)-5-oxopyrrolidin-2-yl]-1-[4-(propan-2-yl)phenyl]ethenyl}pyridin-2(1H)-one] |
| 3000 to 10000 | O=C1CC[C@H](CC(c2ccc(C(F)F)c(F)c2)c2ccc(C3CC3)c(=O)[nH]2)N1 (single isomer, unassigned) [Example 4-234] |
| 3000 to 10000 | O=C1CC[C@H](/C=C(/c2ccc(C3CC3)c(=O)[nH]2)c2ccc(C(F)(F)F)cc2C(F)(F)F)N1 [Example 4-118, 6-{(E)-1-[2,4-Bis(trifluoromethyl)phenyl]-2-[(2R)-5-oxopyrrolidin-2-yl]ethenyl}-3-cyclopropylpyridin-2(1H)-one] |
| 500 to 3000 | CCN(CC)CCCOc1ccc(/C(=C\C2CCOCC2)c2ccc(C3CC3)c(=O)[nH]2)cc1Cl [Example 1-57, 6-[(E)-1-{3-Chloro-4-[3-(diethylamino)propoxy]phenyl}-2-(tetrahydro-2H-pyran-4-yl)ethenyl]-3-cyclopropylpyridin-2(1H)-one] |
| 10 to 500 | O=C1CC[C@H](/C=C(\c2ccc(S(=O)(=O)C3CCCC3)cc2)c2ccc(Cl)c(=O)[nH]2)N1 [Example 4-60, 3-Chloro-6-{(E)-1-[4-(cyclopentylsulfonyl)phenyl]-2-[(2R)-5-oxopyrrolidin-2-yl]ethenyl}pyridin-2(1H)-one] |
